Measurements published in PubChem BioAssay AID248 (DTP/NCI, 2004).
Where “and” joins values, the source holds several entries; their conditions need not be identical. Equal entries are not always repeated. Inconclusive results and toxic doses are left out. Rule as the data show it: active = T/C of 150% or more; inactive = T/C below 125%.

System: L1210 leukemia ip in BDF1 mice, survival T/C
Experiment: NCI In Vivo Anticancer Drug Screen. Data for tumor model L1210 Leukemia (intraperitoneal) in B6D2F1 (BDF1) mice
Conditions: endpoint: mean survival time, higher = longer survival
Summary of the method: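 Survival endpoint. Drug-treated group vs vehicle group, expressed as T divided by C. Tumor passaged by transplantation.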

[1] = dose: 50.0 mg/kg/injection, schedule: Q01DX001 (ip), vehicle: saline
[2] = dose: 100.0 mg/kg/injection, schedule: Q01DX001 (ip), vehicle: saline
[3] = dose: 50.0 mg/kg/injection, schedule: Q01DX001 (ip), vehicle: carboxymethylcellulose (CMC)
[4] = dose: 100.0 mg/kg/injection, schedule: Q01DX001 (ip), vehicle: carboxymethylcellulose (CMC)
[5] = dose: 200.0 mg/kg/injection, schedule: Q01DX001 (ip), vehicle: carboxymethylcellulose (CMC)
[6] = dose: 400.0 mg/kg/injection, schedule: Q01DX001 (ip), vehicle: carboxymethylcellulose (CMC)
[7] = dose: 50.0 mg/kg/injection, schedule: Q01DX009 (ip), vehicle: saline with Tween-80
[8] = dose: 100.0 mg/kg/injection, schedule: Q01DX001 (ip), vehicle: saline with Tween-80
[9] = dose: 200.0 mg/kg/injection, schedule: Q01DX001 (ip), vehicle: saline with Tween-80
[10] = dose: 400.0 mg/kg/injection, schedule: Q01DX001 (ip), vehicle: saline with Tween-80
[11] = dose: 100.0 mg/kg/injection, schedule: Q04DX003 (ip), vehicle: Klucel (hydroxypropylcellulose) (HPC)
[12] = dose: 200.0 mg/kg/injection, schedule: Q04DX003 (ip), vehicle: Klucel (hydroxypropylcellulose) (HPC)
[13] = dose: 400.0 mg/kg/injection, schedule: Q04DX003 (ip), vehicle: Klucel (hydroxypropylcellulose) (HPC)
[14] = dose: 200.0 mg/kg/injection, schedule: Q01DX001 (ip), vehicle: saline
[15] = dose: 400.0 mg/kg/injection, schedule: Q01DX001 (ip), vehicle: saline

Measured: T/C

N=C(N)N=Nc1c(O)[nH]c(=O)[nH]c1=O
inactive: dose: 15.0 mg/kg/injection, schedule: Q01DX Z (ip), vehicle: carboxymethylcellulose (CMC) 98 % of control | dose: 30.0 mg/kg/injection, schedule: Q01DX Z (ip), vehicle: carboxymethylcellulose (CMC) 98 % of control | dose: 60.0 mg/kg/injection, schedule: Q01DX Z (ip), vehicle: carboxymethylcellulose (CMC) 93 % of control | dose: 60.0 mg/kg/injection, schedule: Q01DX Z (oral), vehicle: carboxymethylcellulose (CMC) 110 % of control | dose: 120.0 mg/kg/injection, schedule: Q01DX Z (ip), vehicle: carboxymethylcellulose (CMC) 97 % of control | dose: 120.0 mg/kg/injection, schedule: Q01DX Z (oral), vehicle: carboxymethylcellulose (CMC) 108 % of control | dose: 240.0 mg/kg/injection, schedule: Q01DX Z (oral), vehicle: carboxymethylcellulose (CMC) 104 % of control | dose: 480.0 mg/kg/injection, schedule: Q01DX Z (oral), vehicle: carboxymethylcellulose (CMC) 108 % of control

COc1ncnc2c1ccn2C1OC(CO)C(O)C1O (stereo unspecified)
inactive: dose: 25.0 mg/kg/injection, schedule: Q01DX001 (ip), vehicle: saline 86 % of control | [1] 101 % of control | [2] 101 % of control

NC(N)=N/C(N)=N\c1nn[nH]n1
inactive: dose: 100.0 mg/kg/injection, schedule: Q01DX001 (ip), vehicle: saline sonified 96 % of control | dose: 100.0 mg/kg/injection, schedule: Q01DX009 (ip), vehicle: saline sonified 91 % of control | dose: 200.0 mg/kg/injection, schedule: Q01DX001 (ip), vehicle: saline sonified 100 % of control | dose: 400.0 mg/kg/injection, schedule: Q01DX001 (ip), vehicle: saline sonified 93 % of control | dose: 400.0 mg/kg/injection, schedule: Q01DX009 (ip), vehicle: saline sonified 92 % of control

O=C1CCC2c3ccccc3-c3cccc1c32 (stereo unspecified)
inactive: [3] 100 % of control | [4] 91 % of control | [5] 96 % of control | [6] 102 % of control

CCOC(=O)c1ccc(NC(=O)Nc2ccc(OC)cc2OC)cc1
inactive: dose: 12.5 mg/kg/injection, schedule: Q01DX009 (ip), vehicle: saline with Tween-80 94 % of control and 95 % of control | dose: 25.0 mg/kg/injection, schedule: Q01DX009 (ip), vehicle: saline with Tween-80 94 % of control and 103 % of control | [7] 95 % of control and 87 % of control | [8] 86 % of control | dose: 100.0 mg/kg/injection, schedule: Q04DX002 (ip), vehicle: saline with Tween-80 97 % of control | [9] 89 % of control | dose: 200.0 mg/kg/injection, schedule: Q04DX002 (ip), vehicle: saline with Tween-80 91 % of control | [10] 91 % of control | dose: 400.0 mg/kg/injection, schedule: Q04DX002 (ip), vehicle: saline with Tween-80 93 % of control

CCCNC(=O)NS(=O)(=O)c1ccc(Cl)cc1
inactive: [11] 93 % of control | [12] 94 % of control | [13] 104 % of control

N/C(Cc1ccc(Cl)cc1)=N/O
inactive: [11] 104 % of control | [12] 102 % of control

Cc1ccc(S(=O)(=O)N2CCOCC2)cc1
inactive: [11] 98 % of control | [12] 100 % of control | [13] 108 % of control

COC(=O)C(C)C1CCC2C3=CC=C4CC(OC(C)=O)CCC4(C)C3CCC21C (stereo unspecified)
inactive: [8] 93 % of control | [9] 98 % of control | [10] 104 % of control

Nc1c([N+](=O)[O-])cc(Cl)c(Cl)c1F
inactive: dose: 100.0 mg/kg/injection, schedule: Q04DX002 (ip), vehicle: Klucel (hydroxypropylcellulose) (HPC) 101 % of control | dose: 200.0 mg/kg/injection, schedule: Q04DX002 (ip), vehicle: Klucel (hydroxypropylcellulose) (HPC) 96 % of control | dose: 400.0 mg/kg/injection, schedule: Q04DX002 (ip), vehicle: Klucel (hydroxypropylcellulose) (HPC) 96 % of control

O=S(=O)(/C=C(/Cl)c1ccccc1)c1ccccc1
inactive: dose: 25.0 mg/kg/injection, schedule: Q01DX009 (ip), vehicle: acetone 92 % of control | dose: 50.0 mg/kg/injection, schedule: Q01DX009 (ip), vehicle: acetone 90 % of control | dose: 100.0 mg/kg/injection, schedule: Q01DX001 (ip), vehicle: acetone 101 % of control | dose: 100.0 mg/kg/injection, schedule: Q04DX003 (ip), vehicle: acetone 103 % of control | dose: 200.0 mg/kg/injection, schedule: Q01DX001 (ip), vehicle: acetone 102 % of control | dose: 400.0 mg/kg/injection, schedule: Q01DX001 (ip), vehicle: acetone 104 % of control

C#CC1(O)CCC2C3CCc4cc(O)ccc4C3CCC21C (stereo unspecified)
inactive: dose: 50.0 mg/kg/injection, schedule: Q01DX001 (sc), vehicle: steriod suspending solution 94 % of control | dose: 100.0 mg/kg/injection, schedule: Q01DX001 (sc), vehicle: steriod suspending solution 92 % of control | dose: 200.0 mg/kg/injection, schedule: Q01DX001 (sc), vehicle: steriod suspending solution 106 % of control | dose: 400.0 mg/kg/injection, schedule: Q01DX001 (sc), vehicle: steriod suspending solution 97 % of control

O=C(O)C1(Nc2ccc(-c3ccc(NC4(C(=O)O)CCCC4)cc3)cc2)CCCC1
inactive: [3] 90 % of control | [4] 90 % of control | [5] 88 % of control | [6] 88 % of control

O=c1[nH]ncc2c1[nH]c1cccc(Cl)c12
inactive: dose: 200.0 mg/kg/injection, schedule: Q04DX003 (ip), vehicle: carboxymethylcellulose (CMC) 88 % of control | dose: 400.0 mg/kg/injection, schedule: Q04DX003 (ip), vehicle: carboxymethylcellulose (CMC) 92 % of control

CCOc1ccc(Br)cc1C1N(Cc2ccc(OC)cc2)CCCN1Cc1ccc(OC)cc1
inactive: [4] 96 % of control | [5] 93 % of control | [6] 91 % of control

CCOc1ccc(O)cc1
inactive: dose: 100.0 mg/kg/injection, schedule: Q04DX002 (ip), vehicle: saline + alcohol 109 % of control | dose: 200.0 mg/kg/injection, schedule: Q04DX002 (ip), vehicle: saline + alcohol 100 % of control

C[As+]1(N)c2ccccc2Nc2ccccc21
inactive: [2] 86 % of control | [14] 93 % of control | [15] 91 % of control

Fc1ccc(NC(=S)SCc2ccc(Cl)c(Cl)c2)cc1F
inactive: [7] 108 % of control | dose: 100.0 mg/kg/injection, schedule: Q04DX003 (ip), vehicle: saline with Tween-80 102 % of control | dose: 200.0 mg/kg/injection, schedule: Q01DX009 (ip), vehicle: saline with Tween-80 112 % of control | dose: 200.0 mg/kg/injection, schedule: Q04DX003 (ip), vehicle: saline with Tween-80 106 % of control

O=C(O)CC1CCCCC1c1ccccc1 (stereo unspecified)
inactive: dose: 100.0 mg/kg/injection, schedule: Q01DX009 (ip), vehicle: Klucel (hydroxypropylcellulose) (HPC) 98 % of control | [11] 96 % of control | dose: 200.0 mg/kg/injection, schedule: Q01DX009 (ip), vehicle: Klucel (hydroxypropylcellulose) (HPC) 100 % of control | [12] 106 % of control | dose: 400.0 mg/kg/injection, schedule: Q01DX009 (ip), vehicle: Klucel (hydroxypropylcellulose) (HPC) 87 % of control | [13] 95 % of control

COC1OC(O)C(NC(=O)C(F)(F)F)CC1O (stereo unspecified)
inactive: [1] 103 % of control | [2] 97 % of control | [14] 103 % of control | [15] 91 % of control
